Drawing on US5155041A, “Culture of Bacillus subtilis” (Korea Research Institute of Chemical Technology, priority 1990, dated 1992), this text covers MIC and LD50 for 6 molecules.

Series [1] relates to Trichophyton mentagrophytes ATCC 9533. The experiment in a line: Minimum inhibitory concentration, agar dilution. The series is classed as cell-based.
The subject of another series is Fusarium roseum. The experiment in a line: microbe, parasite or virus in culture. The series is classed as cell-based.
In a further series the test system is Glomerella glycine. The experiment in a line: Minimum inhibitory concentration, agar dilution. The series is classed as cell-based.
Series [2] concerns Sporothrix schenkii ATCC 10212. Put plainly: Minimum inhibitory concentration, agar dilution. The series is classed as cell-based.
Series [3] relates to Epidermopyton floccosum ATCC 38486. The experiment in a line: Minimum inhibitory concentration, agar dilution. The series is classed as cell-based.
Series [4] has as its system Coccidioides immitis ATCC 34020. Put plainly: microbe, parasite or virus in culture. The series is classed as cell-based.
A further series has as its system mice. The note with it: mouse, in vivo, ip; cited from earlier work.
For the next series, the system named is Pyricularia oryzae. The experiment in a line: microbe, parasite or virus in culture. The series is classed as cell-based.
Series [5] concerns Microsporum canis ATCC 11622. The experiment in a line: Minimum inhibitory concentration, agar dilution. The series is classed as cell-based.
The subject of another series is Rhizopus sp. The experiment in a line: Minimum inhibitory concentration, agar dilution. The series is classed as cell-based.
Another series has as its system Cercospora kikuchi. The experiment in a line: Minimum inhibitory concentration, agar dilution. The series is classed as cell-based.
Another series deals with Trichophyton ruburum. Put plainly: Minimum inhibitory concentration, agar dilution. The series is classed as cell-based.
The test system of another series is Fusarium oxysporum. The experiment in a line: Minimum inhibitory concentration, agar dilution.
Another series has as its system Phytophthora parasitica. The experiment in a line: Minimum inhibitory concentration, agar dilution. The series is classed as cell-based.
A further series concerns Botrytis cinerea. Put plainly: Minimum inhibitory concentration, agar dilution.
For another series, the system named is Phytophthora capsici. The experiment in a line: Minimum inhibitory concentration, agar dilution. The series is classed as cell-based.
The next series has as its system Rhizoctonia solani. Put plainly: Minimum inhibitory concentration, agar dilution. The series is classed as cell-based.
Series [6] relates to Asperillus fumigatus ATCC 164264. Put plainly: Minimum inhibitory concentration, agar dilution. The series is classed as cell-based.
In a further series the test system is Microsporum gypseum. The experiment in a line: Minimum inhibitory concentration, agar dilution. The series is classed as cell-based.
The subject of series [7] is Cladosporium carrionii ATCC 1624. Put plainly: Minimum inhibitory concentration, agar dilution. The series is classed as cell-based.
The mark [8] stands for this setting: Phytophthora capsici, read-out: MIC.
Setting [9] is: Rhizoctonia solani, read-out: MIC.
Where [10] appears, read: ATCC9533, Trichophyton mentagrophytes ATCC 9533, read-out: MIC.
Setting [11] is: Glomerella glycine, read-out: MIC.
Setting [12] is: ATCC10212, Sporothrix schenkii ATCC 10212, read-out: MIC.
The mark [13] stands for this setting: Epidermopyton floccosum ATCC 38486, read-out: MIC.
The mark [14] stands for this setting: Cercospora kikuchi, read-out: MIC.
Where [15] appears, read: Trichophyton ruburum, read-out: MIC.
[16] abbreviates: Phytophthora nicotianae, Phytophthora parasitica, read-out: MIC.
The mark [17] stands for this setting: Asperillus fumigatus ATCC 164264, read-out: MIC.
Setting [18] is: Cladophialophora carrionii, ATCC1624, Cladosporium carrionii ATCC 1624, read-out: MIC.
Where [19] appears, read: ATCC11622, Microsporum canis ATCC 11622, read-out: MIC.
Setting [20] is: Nannizzia gypsea, Microsporum gypseum, read-out: MIC.

SMILES strings stand for the structures. ≈ marks a conversion by molar mass, not a printed value. Where two headings read alike, the source gives them in different places.

`C[C@@H]1[C@H](O)[C@@H](C)/C=C/C=C/C=C/C=C/C=C/C=C/C=C/[C@H](O[C@@H]2O[C@H](C)[C@@H](O)[C@H](N)[C@@H]2O)C[C@@H]2O[C@](O)(C[C@@H](O)C[C@@H](O)[C@H](O)CC[C@@H](O)C[C@@H](O)CC(=O)O[C@H]1C)C[C@H](O)[C@H]2C(=O)O` [amphotericin B]: the MIC in series [1] (Trichophyton mentagrophytes, ATCC9533) was determined as 0.8 µg/mL (≈ 0.866 µM); in the series with Fusarium roseum (Fusarium sambucinum) it was 6 µg/mL (≈ 6.49 µM); against Glomerella glycine, 25 µg/mL (≈ 27.1 µM); in series [2] (Sporothrix, ATCC10212), 50 µg/mL (≈ 54.1 µM); in series [3] it was 0.4 µg/mL (≈ 0.433 µM); in series [4] (ATCC34020) it was 0.4 µg/mL (≈ 0.433 µM). The MIC in the series on Pyricularia oryzae stood at 0.2 µg/mL (≈ 0.216 µM); in series [5] (Microsporum canis, ATCC11622), 1.5 µg/mL (≈ 1.62 µM); against Rhizopus sp. (Rhizopus), 100 µg/mL (≈ 108 µM); in the series with Cercospora kikuchi (Cercospora) it was 100 µg/mL (≈ 108 µM); against Trichophyton ruburum (Trichophyton) it was 0.8 µg/mL (≈ 0.866 µM); in the series with Fusarium oxysporum (Fusarium oxysporum), 50 µg/mL (≈ 54.1 µM). The MIC came out at 50 µg/mL (≈ 54.1 µM) in the series on Phytophthora parasitica (Phytophthora nicotianae); 3 µg/mL (≈ 3.25 µM) in the series with Botrytis cinerea (Botrytis cinerea); 25 µg/mL (≈ 27.1 µM) in the series on Phytophthora capsici (Phytophthora capsici); 3 µg/mL (≈ 3.25 µM) with Rhizoctonia solani (Rhizoctonia solani); 1.5 µg/mL (≈ 1.62 µM) in series [6]; 0.8 µg/mL (≈ 0.866 µM) in the series on Microsporum gypseum (Nannizzia gypsea). Also, the MIC in [7] (Cladophialophora carrionii, ATCC1624) was determined as 50 µg/mL (≈ 54.1 µM). The LD50 in the series on mice is reported as 88 mg/kg.

Take `C[C@@H]1C[C@@H]([C@H](O)CC2CC(=O)NC(=O)C2)C(=O)[C@@H](C)C1` [cycloheximide]: the MIC in [1] (Trichophyton mentagrophytes, ATCC9533, read-out: MIC) is more than 100 µg/mL; in the series on Fusarium roseum (Fusarium sambucinum), 25 µg/mL (≈ 88.9 µM); with Glomerella glycine (read-out: MIC), 25 µg/mL (≈ 88.9 µM); in [2] (Sporothrix, ATCC10212, read-out: MIC), more than 100 µg/mL; in [3] (read-out: MIC), more than 100 µg/mL; in [4] (ATCC34020, read-out: MIC), more than 100 µg/mL. The MIC was 3 µg/mL (≈ 10.7 µM) in the series with Pyricularia oryzae (read-out: MIC); more than 100 µg/mL in [5] (Microsporum canis, ATCC11622, read-out: MIC); more than 100 µg/mL with Rhizopus sp. (Rhizopus, read-out: MIC); 100 µg/mL (≈ 355 µM) with Cercospora kikuchi (Cercospora, read-out: MIC); more than 100 µg/mL in the series on Trichophyton ruburum (Trichophyton, read-out: MIC); 1.5 µg/mL (≈ 5.33 µM) in the series on Phytophthora parasitica (Phytophthora nicotianae, read-out: MIC). For the same molecule, the MIC in the series on Phytophthora capsici (setting [8]) was 0.8 µg/mL (≈ 2.84 µM); in the series on Rhizoctonia solani (setting [9]), 12 µg/mL (≈ 42.7 µM); in series [6] (read-out: MIC) it was 50 µg/mL (≈ 178 µM); in the series with Microsporum gypseum (Nannizzia gypsea, read-out: MIC), more than 100 µg/mL; in series [7] (Cladophialophora carrionii, ATCC1624, read-out: MIC), more than 100 µg/mL.

Consider `COC1=CC(=O)C[C@@H](C)[C@]12Oc1c(Cl)c(OC)cc(OC)c1C2=O` [griseofulvin], for which the MIC is 3 µg/mL (≈ 8.5 µM) in series [1] (setting [10]); more than 100 µg/mL in the series with Fusarium roseum (Fusarium sambucinum); more than 100 µg/mL in the series on Glomerella glycine (setting [11]); more than 100 µg/mL in [2] (setting [12]); 1.5 µg/mL (≈ 4.25 µM) in [3] (setting [13]); more than 100 µg/mL in series [4] (ATCC34020). Also, the MIC against Pyricularia oryzae was more than 100 µg/mL; in [5] (Microsporum canis, ATCC11622), 6 µg/mL (≈ 17 µM); in the series on Rhizopus sp. (Rhizopus sp., read-out: MIC) it was more than 100 µg/mL; with Cercospora kikuchi (setting [14]), more than 100 µg/mL; in the series on Trichophyton ruburum (setting [15]), 1.5 µg/mL (≈ 4.25 µM); in the series on Phytophthora parasitica (setting [16]), 25 µg/mL (≈ 70.9 µM). For the same molecule, the MIC was 100 µg/mL (≈ 283 µM) in the series on Phytophthora capsici (setting [8]); 100 µg/mL (≈ 283 µM) with Rhizoctonia solani (setting [9]); more than 100 µg/mL in [6] (setting [17]); 3 µg/mL (≈ 8.5 µM) in the series with Microsporum gypseum (Nannizzia gypsea); more than 100 µg/mL in [7] (setting [18]).

Turning to `C[C@H]1O[C@H](O[C@H]2[C@H](O)[C@@H](O)[C@@H](O)[C@H](O)[C@@H]2O)[C@@H](N)C[C@@H]1NC(=N)C(=O)O` [kasugamycin], the MIC (in series [1] (setting [10]); in the series on Fusarium roseum (Fusarium sambucinum); with Glomerella glycine (setting [11]); in [2] (setting [12]); in series [3] (setting [13]); in series [4] (ATCC34020)) was more than 100 µg/mL throughout. Besides, the MIC in the series on Pyricularia oryzae was 25 µg/mL (≈ 65.9 µM); in [5] (setting [19]), more than 100 µg/mL; in the series on Rhizopus sp. (Rhizopus sp., read-out: MIC) it was more than 100 µg/mL; in the series with Cercospora kikuchi (setting [14]), more than 100 µg/mL; with Trichophyton ruburum (setting [15]), more than 100 µg/mL; with Phytophthora parasitica (setting [16]), more than 100 µg/mL. In addition, the MIC (in the series on Phytophthora capsici (setting [8]); in the series on Rhizoctonia solani (setting [9]); in series [6] (setting [17]); with Microsporum gypseum (setting [20]); in [7] (setting [18])) was more than 100 µg/mL in each case.

Take `C[C@@H]1[C@H](O)[C@@H](C)/C=C/C=C/CC/C=C/C=C/C=C/C=C/C(O[C@H]2O[C@H](C)[C@@H](O)[C@H](N)[C@@H]2O)CC2O[C@](O)(CC(O)C(O)CCC(O)CC(O)CC(O)CC(=O)O[C@H]1C)CC(O)C2C(=O)O` (stereo partly drawn) [nystatin]: the MIC came to 3 µg/mL (≈ 3.24 µM) in series [1]; 6 µg/mL (≈ 6.48 µM) in the series on Fusarium roseum (Fusarium roseum); 6 µg/mL (≈ 6.48 µM) against Glomerella glycine; 25 µg/mL (≈ 27 µM) in series [2]; 1.5 µg/mL (≈ 1.62 µM) in series [3]; 6 µg/mL (≈ 6.48 µM) in series [4] (ATCC34020). The MIC stood at 0.8 µg/mL (≈ 0.864 µM) in the series with Pyricularia oryzae; 1.5 µg/mL (≈ 1.62 µM) in series [5]; 100 µg/mL (≈ 108 µM) against Rhizopus sp.; 12 µg/mL (≈ 13 µM) with Cercospora kikuchi; 3 µg/mL (≈ 3.24 µM) against Trichophyton ruburum; 12 µg/mL (≈ 13 µM) in the series on Fusarium oxysporum. Also, the MIC against Phytophthora parasitica is 100 µg/mL (≈ 108 µM); against Botrytis cinerea it was 1.5 µg/mL (≈ 1.62 µM); against Phytophthora capsici it was 100 µg/mL (≈ 108 µM); in the series with Rhizoctonia solani, 1.5 µg/mL (≈ 1.62 µM); in series [6] it was 12 µg/mL (≈ 13 µM); against Microsporum gypseum, 3 µg/mL (≈ 3.24 µM). Further, in series [7], the MIC was found to be 50 µg/mL (≈ 54 µM). Besides, in the series on mice, the 50% lethal dose (LD50) is recorded as ~ 200 mg/kg.

For the molecule `NC(=O)OCC(O)C(O)C(N)C(=O)NC(C(=O)O)C1OC(n2cc(CO)c(=O)[nH]c2=O)C(O)C1O` (stereo not drawn) [polyoxin B], the MIC (in [1] (setting [10]); in the series on Fusarium roseum (Fusarium sambucinum); with Glomerella glycine (setting [11]); in series [2] (setting [12]); in series [3] (setting [13]); in series [4] (ATCC34020)) was more than 100 µg/mL throughout. In addition, the MIC against Pyricularia oryzae is more than 100 µg/mL; in series [5] (setting [19]), more than 100 µg/mL; in the series on Rhizopus sp. (Rhizopus sp., read-out: MIC), more than 100 µg/mL; in the series on Cercospora kikuchi (setting [14]), more than 100 µg/mL; with Trichophyton ruburum (setting [15]), more than 100 µg/mL; with Phytophthora parasitica (setting [16]), more than 100 µg/mL. Also, the MIC (in the series with Phytophthora capsici (setting [8]); with Rhizoctonia solani (setting [9]); in series [6] (setting [17]); in the series with Microsporum gypseum (setting [20]); in series [7] (setting [18])) was more than 100 µg/mL each time.
